Assay results as given in BigSolDB 2.1.

Nc1cccc2cccc(N)c12
solubility (mole fraction)
Conditions | 273.15 K | 278.15 K | 283.15 K | 288.15 K | 293.15 K | 298.15 K | 303.15 K | 308.15 K | 313.15 K
in acetonitrile | 0.0518 | 0.065 | 0.0798 | 0.0966 | 0.116 | 0.139 | 0.166 | 0.197 | 0.231
in ethyl acetate | 0.0765 | 0.091 | 0.107 | 0.127 | 0.152 | 0.179 | 0.212 | 0.252 | 0.295
in isopropanol | 0.0221 | 0.0277 | 0.0338 | 0.0407 | 0.0491 | 0.0588 | 0.0688 | 0.0807 | 0.0936
in methanol | 0.018 | 0.0219 | 0.0267 | 0.0327 | 0.0391 | 0.0467 | 0.0551 | 0.0647 | 0.0754
in n-propanol | 0.0385 | 0.0484 | 0.0594 | 0.0718 | 0.0868 | 0.103 | 0.121 | 0.142 | 0.166
in toluene | 0.0423 | 0.0512 | 0.0654 | 0.0803 | 0.0966 | 0.117 | 0.138 | 0.163 | 0.189

Nc1cccc2c(N)cccc12
solubility (mole fraction)
Conditions | 273.15 K | 278.15 K | 283.15 K | 288.15 K | 293.15 K | 298.15 K | 303.15 K | 308.15 K | 313.15 K
in acetonitrile | 0.00186 | 0.00238 | 0.00305 | 0.00382 | 0.00477 | 0.00577 | 0.00695 | 0.00834 | 0.00983
in ethyl acetate | 0.00404 | 0.00487 | 0.00569 | 0.00662 | 0.00759 | 0.00869 | 0.00992 | 0.0113 | 0.0128
in isopropanol | 0.000471 | 0.000564 | 0.000684 | 0.000807 | 0.000947 | 0.0011 | 0.00126 | 0.00144 | 0.00163
in methanol | 0.00112 | 0.00132 | 0.00154 | 0.00181 | 0.00209 | 0.0024 | 0.00278 | 0.0032 | 0.00369
in n-propanol | 0.00064 | 0.000762 | 0.000895 | 0.00105 | 0.00122 | 0.00142 | 0.00165 | 0.00192 | 0.00224
in toluene | 0.000262 | 0.000345 | 0.000445 | 0.00056 | 0.000689 | 0.00084 | 0.00102 | 0.0012 | 0.0014
